Consider one molecule from ChEMBL document CHEMBL3734727, “Metabolomics-Driven Discovery of a Prenylated Isatin Antibiotic Produced by Streptomyces Species MBT28” (2015).

The test system of one experiment is Staphylococcus aureus. The experiment is described as follows: Antibacterial activity against Staphylococcus aureus. The class given is functional, organism-based.
Another experiment deals with Escherichia coli. The experiment is described as follows: Antibacterial activity against Escherichia coli K-12. The class given is functional, organism-based.
In the next experiment the test system is Bacillus subtilis. The experiment is described as follows: Antibacterial activity against Bacillus subtilis assessed as growth inhibition by microtiter plate-based MIC test.

Structures are written as SMILES. The source made the active and inactive calls. No cut-off for these calls is given here.

Take `CC(C)=CCc1cccc2c1NC(=O)C2=O`: the outcome in the experiment with Staphylococcus aureus and in the experiment on Escherichia coli was inactive. The minimum inhibitory concentration (MIC) in the experiment on Bacillus subtilis was found to be 25 µg/mL.
